Experimental data as given in patent publication US12492188B2, “1H-benzo[D]imidazole derivatives as TLR9 inhibitors for the treatment of fibrosis” (BRISTOL-MYERS SQUIBB COMPANY, priority 2020, dated 2025).
Like-named read-outs stand apart in the source and are kept apart here.

Biological target: T1, human TLR9 (Homo sapiens, UniProt Q9NR96)
T1 construct: host or cells: HEK-Blue cells (HEK293-derived reporter line)
T1 sequence (Q9NR96 26-1032): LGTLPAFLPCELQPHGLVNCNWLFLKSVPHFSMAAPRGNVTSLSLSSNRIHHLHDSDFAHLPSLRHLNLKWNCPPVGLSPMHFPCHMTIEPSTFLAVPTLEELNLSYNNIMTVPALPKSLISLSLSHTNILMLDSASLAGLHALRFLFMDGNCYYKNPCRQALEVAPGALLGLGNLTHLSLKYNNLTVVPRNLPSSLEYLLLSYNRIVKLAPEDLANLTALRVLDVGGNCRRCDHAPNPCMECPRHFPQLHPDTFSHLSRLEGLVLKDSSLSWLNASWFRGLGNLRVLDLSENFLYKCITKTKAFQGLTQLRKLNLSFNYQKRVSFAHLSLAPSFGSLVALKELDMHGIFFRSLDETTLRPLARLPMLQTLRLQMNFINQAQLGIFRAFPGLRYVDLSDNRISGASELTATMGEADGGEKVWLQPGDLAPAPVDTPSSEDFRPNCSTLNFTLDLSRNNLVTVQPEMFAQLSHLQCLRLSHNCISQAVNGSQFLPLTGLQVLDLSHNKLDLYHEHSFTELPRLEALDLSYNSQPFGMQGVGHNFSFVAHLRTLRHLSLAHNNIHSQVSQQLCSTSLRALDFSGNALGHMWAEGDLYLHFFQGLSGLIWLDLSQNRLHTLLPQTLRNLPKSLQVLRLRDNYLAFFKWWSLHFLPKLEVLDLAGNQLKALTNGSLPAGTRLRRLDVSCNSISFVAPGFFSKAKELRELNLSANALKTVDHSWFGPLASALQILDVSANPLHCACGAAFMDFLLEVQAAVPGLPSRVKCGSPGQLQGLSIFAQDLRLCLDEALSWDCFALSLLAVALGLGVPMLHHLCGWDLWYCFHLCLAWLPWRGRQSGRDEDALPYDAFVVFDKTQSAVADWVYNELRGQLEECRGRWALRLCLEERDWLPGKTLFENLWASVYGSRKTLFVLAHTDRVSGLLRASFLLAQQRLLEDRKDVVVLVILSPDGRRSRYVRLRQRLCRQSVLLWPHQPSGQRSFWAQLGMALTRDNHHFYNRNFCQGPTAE
Experiment: TLR9 inhibition reporter assay (HEK-Blue cells, secreted embryonic alkaline phosphatase reporter)
Type: cell-based
Method: TLR7/8/9 Inhibition Reporter Assays
HEK-Blue™-cells (Invivogen) overexpressing human TLR7, TLR8 or TLR9 receptors were used for screening inhibitors of these receptors using an inducible SLAP (secreted embryonic alkaline phosphatase) reporter gene under the control of the […] minimal promoter fused to five NF-κB and AP-1-binding sites. Briefly, cells are seeded into Greiner 384 well plates (15000 cells per well for TLR7, 20,000 for TLR8 and 25,000 for TLR9) and then treated with test compounds in DMSO to yield a final dose response concentration range of 0.05 nM-50 μM. After a 30 minute compound pre-treatment at room temperature, the cells are then stimulated with a TLR7 ligand (gardiquimod at a final concentration of 7.5 μM), TLR8 ligand (R848 at a final concentration of 15.9 μM) or TLR9 ligand (ODN2006 at a final concentration of 5 nM) to activate NF-κB and AP-1 which induce the production of SLAP. After a 22 hour incubation at 37° C., […], SLAP levels are determined with the addition of HEK-Blue™ Detection reagent (Invivogen), a cell culture medium that allows for detection of SLAP, according to manufacturer's specifications. The percent inhibition is determined as the […] in the HEK-Blue signal present in wells treated with agonist plus DMSO alone compared to wells treated with a known inhibitor.

[1] = HEK-Blue cells overexpressing human TLR9, stimulated with ODN2006 5 nM, 22 hour incubation, reporter readout
[2] = HEK-Blue cells overexpressing human TLR9, stimulated with ODN2006 5 nM, read-out: TLR 9 IC50
[3] = HEK-Blue human TLR9 reporter cells

Compound	IC50 [1]	IC50 [2]	IC50	IC50 [3]
CC(C)N1CC2(CN(Cc3ccc(-c4cc(F)c5nc(-c6ccc(S(C)(=O)=O)cc6)n(C6CC6)c5c4)cc3)C2)C1 [Example 410, 1-cyclopropyl-4-fluoro-6-(4-((6-isopropyl-2,6-diazaspiro[3.3]heptan-2-yl)methyl)phenyl)-2-(4-(methylsulfonyl)phenyl)-1H-benzo[d]imidazole]	44 nM	44 nM		
Cc1cc(C2CCN(C3CCN(CC(C)C)CC3)CC2)cc2[nH]c(-c3cccc4ncsc34)nc12 [Example 77, 7-(6-(1′-isobutyl-[1,4′-bipiperidin]-4-yl)-4-methyl-1H-benzo[d]imidazol-2-yl)benzo[d]thiazole]	31 nM	31 nM		
COc1ccc(-c2nc3c(C)cc(C4CCN(C5CC6CCC(C5)N6CC5CCC5)CC4)cc3n2C)cc1OC (single isomer, unassigned) [Example 151, 6-(1-(8-(cyclobutylmethyl)-8-azabicyclo[3.2.1]octan-3-yl)piperidin-4-yl)-2-(3,4-dimethoxyphenyl)-1,4-dimethyl-1H-benzo[d]imidazole]		172 nM	170 nM	
Cc1cc(C2CCN(C3CC4CCC(C3)N4CC3CCC3)CC2)cc2c1nc(-c1ccc(S(C)(=O)=O)cc1)n2C (single isomer, unassigned) [Example 157, 6-(1-(8-(cyclobutylmethyl)-8-azabicyclo[3.2.1]octan-3-yl)piperidin-4-yl)-1,4-dimethyl-2-(4-(methylsulfonyl)phenyl)-1H-benzo[d]imidazole]		339 nM	340 nM	
CC(C)CN1CCC(N2CCC(c3ccc4nc(-c5ccc(S(C)(=O)=O)cc5)n(C5CC5)c4c3F)CC2)CC1 [Example 415, 1-cyclopropyl-7-fluoro-6-(1′-isobutyl-[1,4′-bipiperidin]-4-yl)-2-(4-(methylsulfonyl)phenyl)-1H-benzo[d]imidazole]	65 nM	65 nM		
Cc1cc(C2CCN(C3CCN(CC(C)C)CC3)CC2)cc2[nH]c(-c3ccc4c(c3)OC(F)(F)O4)nc12 [Example 65, 2-(2,2-difluorobenzo[d][1,3]dioxol-5-yl)-6-(1′-isobutyl-[1,4′-bipiperidin]-4-yl)-4-methyl-1H-benzo[d]imidazole tris(2,2,2-trifluoroacetate)]	300 nM	297 nM		
COc1ccc(-c2nc3c(F)cc(C4CCN(C5CCN(C6CC6)CC5)CC4)cc3[nH]2)cc1OC [Example 128, 6-(1′-cyclopropyl-[1,4′-bipiperidin]-4-yl)-2-(3,4-dimethoxyphenyl)-4-fluoro-1H-benzo[d]imidazole]		268 nM	270 nM	
Cc1cc(-c2ccc(OC3CCN(CC(C)C)CC3)cc2)cc2c1nc(-c1ccc(S(C)(=O)=O)cc1)n2C [Example 417, 6-(4-((1-isobutylpiperidin-4-yl)oxy)phenyl)-1,4-dimethyl-2-(4-(methylsulfonyl)phenyl)-1H-benzo[d]imidazole]	800 nM	800 nM		
COc1cc(-c2nc3c(C)cc(C4CCN(C5CCN(CC(C)C)CC5)CC4)cc3[nH]2)cn2ncnc12 [Example 61, 6-(6-(1′-isobutyl-[1,4′-bipiperidin]-4-yl)-4-methyl-1H-benzo[d]imidazol-2-yl)-8-methoxy-[1,2,4]triazolo[1,5-a]pyridine tris(2,2,2-trifluoroacetate)]	49 nM	49 nM		
CS(=O)(=O)c1ccc(-c2nc3c(F)cc(C4CCN(C5CCN(CC6CC6)CC5)CC4)cc3n2C2CC2)cc1 [Example 320, 1-cyclopropyl-6-(1′-(cyclopropylmethyl)-[1,4′-bipiperidin]-4-yl)-4-fluoro-2-(4-(methylsulfonyl)phenyl)-1H-benzo[d]imidazole]		77 nM		77 nM
Cc1cc(-c2ccc(N3CCN(CC4CCC4)CC3)cc2)cc2c1nc(-c1ccc(S(C)(=O)=O)cc1)n2C [Example 172, 6-(4-(4-(cyclobutylmethyl)piperazin-1-yl)phenyl)-1,4-dimethyl-2-(4-(methylsulfonyl)phenyl)-1H-benzo[d]imidazole]		1780 nM	1800 nM	
Cc1cc(-c2ccc(N3CCN(CC4CC4)CC3)cc2)cc2c1nc(-c1ccc(S(C)(=O)=O)cc1)n2C [Example 171, 6-(4-(4-(cyclopropylmethyl)piperazin-1-yl)phenyl)-1,4-dimethyl-2-(4-(methylsulfonyl)phenyl)-1H-benzo[d]imidazole]		653 nM	650 nM	
COc1cc(-c2nc3c(C)cc(C4CCN(C5CC6CCC(C5)N6C5CCC5)CC4)cc3[nH]2)cn2ncnc12 (centres unmarked) [Example 361, 6-(6-(1-(8-cyclobutyl-8-azabicyclo[3.2.1]octan-3-yl)piperidin-4-yl)-4-methyl-1H-benzo[d]imidazol-2-yl)-8-methoxy-[1,2,4]triazolo[1,5-a]pyridine]		20 nM		21 nM
Cc1cc(C2CCN(C3CCN(CC(C)C)CC3)CC2)cc2[nH]c(-c3ccc(OC(F)(F)F)c(Cl)c3)nc12 [Example 73, 2-(3-chloro-4-(trifluoromethoxy)phenyl)-6-(1′-isobutyl-[1,4′-bipiperidin]-4-yl)-4-methyl-1H-benzo[d]imidazole tris(2,2,2-trifluoroacetate)]	270 nM	270 nM		
COc1ccc(-c2nc3ccc(C4CCN(C5CCN(C6CC6)CC5)CC4)c(F)c3[nH]2)cc1OC [Example 175, 6-(1′-cyclopropyl-[1,4′-bipiperidin]-4-yl)-2-(3,4-dimethoxyphenyl)-7-fluoro-1H-benzo[d]imidazole]		527 nM	530 nM	
COc1ccc(-c2nc3c(C)cc(C4CCN(C5CC6CCC(C5)N6C(C)C)CC4)cc3n2C)cc1OC (centres unmarked) [Example 144, 2-(3,4-dimethoxyphenyl)-6-(1-(8-isopropyl-8-azabicyclo[3.2.1]octan-3-yl)piperidin-4-yl)-1,4-dimethyl-1H-benzo[d]imidazole]		62 nM	62 nM	
Cc1cc(C2CCN(C3CCN(CC(C)C)CC3)CC2)cc2[nH]c(-c3ccccc3OC(F)(F)F)nc12 [Example 80, 6-(1′-isobutyl-[1,4′-bipiperidin]-4-yl)-4-methyl-2-(2-(trifluoromethoxy)phenyl)-1H-benzo[d]imidazole tris(2,2,2-trifluoroacetate)]	360 nM	358 nM		
COc1ccc(-c2nc3c(F)cc(C4CCN(C5CCN(C(C)C)CC5)CC4)cc3[nH]2)cc1OC [Example 83, 2-(3,4-dimethoxyphenyl)-4-fluoro-6-(1′-isopropyl-[1,4′-bipiperidin]-4-yl)-1H-benzo[d]imidazole]	210 nM			
COc1ccc(-c2nc3ccc(C4CCN(C5CCN(CC(C)C)CC5)CC4)c(F)c3[nH]2)cc1OC [Example 133, 2-(3,4-dimethoxyphenyl)-7-fluoro-6-(1′-isobutyl-[1,4′-bipiperidin]-4-yl)-1H-benzo[d]imidazole]		2200 nM	2200 nM	
Cc1cc(C2CCN(C3CCCN(CC4CCC4)CC3)CC2)cc2c1nc(-c1ccc(S(C)(=O)=O)cc1)n2C (centres unmarked) [Example 138, 6-(1-(1-(cyclobutylmethyl)azepan-4-yl)piperidin-4-yl)-1,4-dimethyl-2-(4-(methylsulfonyl)phenyl)-1H-benzo[d]imidazole]		62 nM	62 nM	
Cc1cc(C2CCN(C3CC4CCC(C3)N4CC3CC3)CC2)cc2[nH]c(-c3ccc(S(C)(=O)=O)c(F)c3)nc12 (centres unmarked) [Example 351, 6-(1-(8-(cyclopropylmethyl)-8-azabicyclo[3.2.1]octan-3-yl)piperidin-4-yl)-2-(3-fluoro-4-(methylsulfonyl)phenyl)-4-methyl-1H-benzo[d]imidazole]		48 nM		48 nM
